Reference: patent US20230242585A1, “IMMUNOMODULATORS” (Bristol-Myers Squibb Company, priority 2020, published 2023)
Starred links: 1 amine or outer side, 2 acyl side, 3 side chain; linkers in the order of their positions; H or OH if unused. Positions of bridges follow the written chain, without caps; N, C: chain ends. Non-standard residues stand in square brackets, D forms with d. Residues, ends and D or L forms follow the SMILES beside them. X28 = O=C([C@H](CCNC[C@H](O)[C@@H](O)[C@H](O[C@@H]1O[C@H](CO)[C@H](O)[C@H](O)[C@H]1O)[C@H](O)CO)N[*:1])[*:2]; X27 = O=C([C@H](CNC[C@H](O)[C@@H](O)[C@H](O[C@@H]1O[C@H](CO)[C@H](O)[C@H](O)[C@H]1O)[C@H](O)CO)N[*:1])[*:2]; X56 = O=C([C@H](CCNC[C@@H](O)[C@H](O)[C@@H](O)[C@@H](O)[C@H](O)CO)N[*:1])[*:2]; X49 = O=C([C@H](CNC[C@@H](O)[C@H](O)[C@@H](O)[C@@H](O)[C@H](O)CO)N[*:1])[*:2]; X40 = O=C([C@H](CNC1[C@@H](O)[C@@H](O)[C@@H](O)[C@H](O)[C@H]1O)N[*:1])[*:2]; X51 = O=C([C@H](CCNC[C@@H](O)[C@@H](O)[C@H](O)[C@H](O)C(O)CO)N[*:1])[*:2]; X50 = O=C([C@H](CNC[C@@H](O)[C@@H](O)[C@H](O)[C@H](O)C(O)CO)N[*:1])[*:2]; X62 = O=C([C@H](CCNC[C@H](O)[C@H](O)[C@@H](O)[C@@H](O)CO)N[*:1])[*:2]; X63 = O=C([C@H](CCNC[C@H](O)[C@@H](O)[C@@H](O)[C@H](O)CO)N[*:1])[*:2]; X11 = O=C([C@H](CNC[C@H](O)[C@@H](O)[C@@H](O)[C@H](O)CO)N[*:1])[*:2]; X35 = O=C([C@H](CNC[C@H](O)[C@H](O)[C@@H](O)[C@@H](O)CO)N[*:1])[*:2]; X59 = O=C([C@H](CCNC[C@H](O)[C@@H](O)[C@H](O)[C@H](O)CO)N[*:1])[*:2]; X8 = O=C([C@H](CNC[C@@H](O)[C@@H](O)[C@@H](O)[C@H](O)CO)N[*:1])[*:2]; X3 = O=C([C@H](CNC[C@@H](O)[C@@H](O)[C@H](O)[C@H](O)CO)N[*:1])[*:2]; X58 = O=C([C@H](CNC[C@H](O)[C@@H](O)[C@H](O)[C@H](O)CO)N[*:1])[*:2]; Trp(1-CH2COOH) = N[C@@H](Cc1cn(CC(=O)O)c2ccccc12)C(=O)O; Hyp = O=C(O)[C@@H]1C[C@@H](O)CN1; NMeNle = CCCC[C@H](NC)C(=O)O; NMeA = CN[C@@H](C)C(=O)O; Dab = NCC[C@H](N)C(=O)O

These compounds were tested against T1, PD-1/PD-L1 (Homo sapiens, UniProt Q9NZQ7) (assay: PD-1/PD-L1 Homogenous Time-Resolved Fluorescence (HTRF) binding assay). Conditions: PD-L1-His 10 nM, PD-1-Ig 20 nM.
T1 construct: TVMV protease site (linker) (C); made in house; host or cells: HEK293T cells
Summary of the method: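 Compounds preincubated 15 min with PD-L1-His (residues 18-239, 10 nM) in dPBS with 0.1% BSA, 0.05% Tween-20, then PD-1-Ig (residues 25-167, 20 nM) for 15 min. Eu-cryptate anti-Ig (1 nM) and APC anti-His (20 nM) equilibrated 30 min; 665/620 nm ratio read, IC50 derived.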

T1 sequence (Q9NZQ7 18-239): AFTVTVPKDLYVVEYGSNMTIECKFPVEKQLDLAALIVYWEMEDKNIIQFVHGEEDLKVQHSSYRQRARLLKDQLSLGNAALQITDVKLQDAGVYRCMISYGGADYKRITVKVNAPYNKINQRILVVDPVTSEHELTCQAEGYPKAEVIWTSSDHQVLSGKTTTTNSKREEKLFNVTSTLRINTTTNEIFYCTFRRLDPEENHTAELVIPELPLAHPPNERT

Compound | IC50
CCCC[C@H]1C(=O)N(C)[C@@H](CCCC)C(=O)N[C@@H](CC(C)C)C(=O)N[C@H](C(=O)NCC(N)=O)CSCC(=O)N[C@@H](Cc2ccc(O)cc2)C(=O)N(C)[C@@H](C)C(=O)N[C@@H](CC(N)=O)C(=O)N2CCC[C@H]2C(=O)N[C@@H](CNC[C@@H](O)[C@H](O)[C@@H](O)[C@@H](O)[C@H](O)CO)C(=O)N[C@@H](CC(C)C)C(=O)N2C[C@H](O)C[C@H]2C(=O)N[C@@H](Cc2c[nH]c3ccccc23)C(=O)N[C@@H](CCN)C(=O)N[C@@H](Cc2cn(CC(=O)O)c3ccccc23)C(=O)N1C [Example 2019] ({CH2CO}-Y[NMeA]NP[X49]L[Hyp]W[Dab][Trp(1-CH2COOH)][NMeNle][NMeNle]LCG-NH2; thioether N-14) | 8.1 nM
CCCC[C@H]1C(=O)N(C)[C@@H](CCCC)C(=O)N[C@@H](CC(C)C)C(=O)N[C@H](C(=O)NCC(N)=O)CSCC(=O)N[C@@H](Cc2ccc(O)cc2)C(=O)N(C)[C@@H](C)C(=O)N[C@@H](CC(N)=O)C(=O)N2CCC[C@H]2C(=O)N[C@@H](CNC2[C@@H](O)[C@@H](O)[C@@H](O)[C@H](O)[C@H]2O)C(=O)N[C@@H](CC(C)C)C(=O)N2C[C@H](O)C[C@H]2C(=O)N[C@@H](Cc2c[nH]c3ccccc23)C(=O)N[C@@H](CCN)C(=O)N[C@@H](Cc2cn(CC(=O)O)c3ccccc23)C(=O)N1C (stereo partly drawn) [Example 2020] ({CH2CO}-Y[NMeA]NP[X40]L[Hyp]W[Dab][Trp(1-CH2COOH)][NMeNle][NMeNle]LCG-NH2; thioether N-14) | 5 nM
CCCC[C@H]1C(=O)N(C)[C@@H](CCCC)C(=O)N[C@@H](CC(C)C)C(=O)N[C@H](C(=O)NCC(N)=O)CSCC(=O)N[C@@H](Cc2ccc(O)cc2)C(=O)N(C)[C@@H](C)C(=O)N[C@@H](CC(N)=O)C(=O)N2CCC[C@H]2C(=O)N[C@@H](CNC[C@@H](O)[C@@H](O)[C@H](O)[C@H](O)C(O)CO)C(=O)N[C@@H](CC(C)C)C(=O)N2C[C@H](O)C[C@H]2C(=O)N[C@@H](Cc2c[nH]c3ccccc23)C(=O)N[C@@H](CCNC[C@@H](O)[C@@H](O)[C@H](O)[C@H](O)C(O)CO)C(=O)N[C@@H](Cc2cn(CC(=O)O)c3ccccc23)C(=O)N1C (stereo partly drawn) [Example 2021] ({CH2CO}-Y[NMeA]NP[X50]L[Hyp]W[X51][Trp(1-CH2COOH)][NMeNle][NMeNle]LCG-NH2; thioether N-14) | 8.9 nM
CCCC[C@H]1C(=O)N(C)[C@@H](CCCC)C(=O)N[C@@H](CC(C)C)C(=O)N[C@H](C(=O)NCC(N)=O)CSCC(=O)N[C@@H](Cc2ccc(O)cc2)C(=O)N(C)[C@@H](C)C(=O)N[C@@H](CC(N)=O)C(=O)N2CCC[C@H]2C(=O)N[C@@H](CNC[C@@H](O)[C@@H](O)[C@@H](O)[C@H](O)CO)C(=O)N[C@@H](CC(C)C)C(=O)N2C[C@H](O)C[C@H]2C(=O)N[C@@H](Cc2c[nH]c3ccccc23)C(=O)N[C@@H](CCN)C(=O)N[C@@H](Cc2cn(CC(=O)O)c3ccccc23)C(=O)N1C [Example 2022] ({CH2CO}-Y[NMeA]NP[X8]L[Hyp]W[Dab][Trp(1-CH2COOH)][NMeNle][NMeNle]LCG-NH2; thioether N-14) | 8.6 nM
CCCC[C@H]1C(=O)N(C)[C@@H](CCCC)C(=O)N[C@@H](CC(C)C)C(=O)N[C@H](C(=O)NCC(N)=O)CSCC(=O)N[C@@H](Cc2ccc(O)cc2)C(=O)N(C)[C@@H](C)C(=O)N[C@@H](CC(N)=O)C(=O)N2CCC[C@H]2C(=O)N[C@@H](CNC[C@H](O)[C@H](O)[C@@H](O)[C@@H](O)CO)C(=O)N[C@@H](CC(C)C)C(=O)N2C[C@H](O)C[C@H]2C(=O)N[C@@H](Cc2c[nH]c3ccccc23)C(=O)N[C@@H](CCNC[C@H](O)[C@H](O)[C@@H](O)[C@@H](O)CO)C(=O)N[C@@H](Cc2cn(CC(=O)O)c3ccccc23)C(=O)N1C [Example 2023] ({CH2CO}-Y[NMeA]NP[X35]L[Hyp]W[X62][Trp(1-CH2COOH)][NMeNle][NMeNle]LCG-NH2; thioether N-14) | 6.1 nM
CCCC[C@H]1C(=O)N(C)[C@@H](CCCC)C(=O)N[C@@H](CC(C)C)C(=O)N[C@H](C(=O)NCC(N)=O)CSCC(=O)N[C@@H](Cc2ccc(O)cc2)C(=O)N(C)[C@@H](C)C(=O)N[C@@H](CC(N)=O)C(=O)N2CCC[C@H]2C(=O)N[C@@H](CNC[C@@H](O)[C@@H](O)[C@H](O)[C@H](O)CO)C(=O)N[C@@H](CC(C)C)C(=O)N2C[C@H](O)C[C@H]2C(=O)N[C@@H](Cc2c[nH]c3ccccc23)C(=O)N[C@@H](CCN)C(=O)N[C@@H](Cc2cn(CC(=O)O)c3ccccc23)C(=O)N1C [Example 2024] ({CH2CO}-Y[NMeA]NP[X3]L[Hyp]W[Dab][Trp(1-CH2COOH)][NMeNle][NMeNle]LCG-NH2; thioether N-14) | 1.6 nM
CCCC[C@H]1C(=O)N(C)[C@@H](CCCC)C(=O)N[C@@H](CC(C)C)C(=O)N[C@H](C(=O)NCC(N)=O)CSCC(=O)N[C@@H](Cc2ccc(O)cc2)C(=O)N(C)[C@@H](C)C(=O)N[C@@H](CC(N)=O)C(=O)N2CCC[C@H]2C(=O)N[C@@H](CNC[C@H](O)[C@@H](O)[C@@H](O)[C@H](O)CO)C(=O)N[C@@H](CC(C)C)C(=O)N2C[C@H](O)C[C@H]2C(=O)N[C@@H](Cc2c[nH]c3ccccc23)C(=O)N[C@@H](CCNC[C@H](O)[C@@H](O)[C@@H](O)[C@H](O)CO)C(=O)N[C@@H](Cc2cn(CC(=O)O)c3ccccc23)C(=O)N1C [Example 2026] ({CH2CO}-Y[NMeA]NP[X11]L[Hyp]W[X63][Trp(1-CH2COOH)][NMeNle][NMeNle]LCG-NH2; thioether N-14) | 1.8 nM
CCCC[C@H]1C(=O)N(C)[C@@H](CCCC)C(=O)N[C@@H](CC(C)C)C(=O)N[C@H](C(=O)NCC(N)=O)CSCC(=O)N[C@@H](Cc2ccc(O)cc2)C(=O)N(C)[C@@H](C)C(=O)N[C@@H](CC(N)=O)C(=O)N2CCC[C@H]2C(=O)N[C@@H](CNC[C@H](O)[C@H](O)[C@@H](O)[C@@H](O)CO)C(=O)N[C@@H](CC(C)C)C(=O)N2C[C@H](O)C[C@H]2C(=O)N[C@@H](Cc2c[nH]c3ccccc23)C(=O)N[C@@H](CCN)C(=O)N[C@@H](Cc2cn(CC(=O)O)c3ccccc23)C(=O)N1C [Example 2027] ({CH2CO}-Y[NMeA]NP[X35]L[Hyp]W[Dab][Trp(1-CH2COOH)][NMeNle][NMeNle]LCG-NH2; thioether N-14) | 1 nM
CCCC[C@H]1C(=O)N(C)[C@@H](CCCC)C(=O)N[C@@H](CC(C)C)C(=O)N[C@H](C(=O)NCC(N)=O)CSCC(=O)N[C@@H](Cc2ccc(O)cc2)C(=O)N(C)[C@@H](C)C(=O)N[C@@H](CC(N)=O)C(=O)N2CCC[C@H]2C(=O)N[C@@H](CNC[C@H](O)[C@@H](O)[C@H](O[C@@H]2O[C@H](CO)[C@H](O)[C@H](O)[C@H]2O)[C@H](O)CO)C(=O)N[C@@H](CC(C)C)C(=O)N2C[C@H](O)C[C@H]2C(=O)N[C@@H](Cc2c[nH]c3ccccc23)C(=O)N[C@@H](CCNC[C@H](O)[C@@H](O)[C@H](O[C@@H]2O[C@H](CO)[C@H](O)[C@H](O)[C@H]2O)[C@H](O)CO)C(=O)N[C@@H](Cc2cn(CC(=O)O)c3ccccc23)C(=O)N1C [Example 2028] ({CH2CO}-Y[NMeA]NP[X27]L[Hyp]W[X28][Trp(1-CH2COOH)][NMeNle][NMeNle]LCG-NH2; thioether N-14) | 4.6 nM
CCCC[C@H]1C(=O)N(C)[C@@H](CCCC)C(=O)N[C@@H](CC(C)C)C(=O)N[C@H](C(=O)NCC(N)=O)CSCC(=O)N[C@@H](Cc2ccc(O)cc2)C(=O)N(C)[C@@H](C)C(=O)N[C@@H](CC(N)=O)C(=O)N2CCC[C@H]2C(=O)N[C@@H](CNC[C@@H](O)[C@H](O)[C@@H](O)[C@@H](O)[C@H](O)CO)C(=O)N[C@@H](CC(C)C)C(=O)N2C[C@H](O)C[C@H]2C(=O)N[C@@H](Cc2c[nH]c3ccccc23)C(=O)N[C@@H](CCNC[C@@H](O)[C@H](O)[C@@H](O)[C@@H](O)[C@H](O)CO)C(=O)N[C@@H](Cc2cn(CC(=O)O)c3ccccc23)C(=O)N1C [Example 2029] ({CH2CO}-Y[NMeA]NP[X49]L[Hyp]W[X56][Trp(1-CH2COOH)][NMeNle][NMeNle]LCG-NH2; thioether N-14) | 8.5 nM
CCCC[C@H]1C(=O)N(C)[C@@H](CCCC)C(=O)N[C@@H](CC(C)C)C(=O)N[C@H](C(=O)NCC(N)=O)CSCC(=O)N[C@@H](Cc2ccc(O)cc2)C(=O)N(C)[C@@H](C)C(=O)N[C@@H](CC(N)=O)C(=O)N2CCC[C@H]2C(=O)N[C@@H](CNC[C@@H](O)[C@@H](O)[C@H](O)[C@H](O)C(O)CO)C(=O)N[C@@H](CC(C)C)C(=O)N2C[C@H](O)C[C@H]2C(=O)N[C@@H](Cc2c[nH]c3ccccc23)C(=O)N[C@@H](CCN)C(=O)N[C@@H](Cc2cn(CC(=O)O)c3ccccc23)C(=O)N1C (stereo partly drawn) [Example 2031] ({CH2CO}-Y[NMeA]NP[X50]L[Hyp]W[Dab][Trp(1-CH2COOH)][NMeNle][NMeNle]LCG-NH2; thioether N-14) | 9.1 nM
CCCC[C@H]1C(=O)N(C)[C@@H](CCCC)C(=O)N[C@@H](CC(C)C)C(=O)N[C@H](C(=O)NCC(N)=O)CSCC(=O)N[C@@H](Cc2ccc(O)cc2)C(=O)N(C)[C@@H](C)C(=O)N[C@@H](CC(N)=O)C(=O)N2CCC[C@H]2C(=O)N[C@@H](CNC[C@H](O)[C@@H](O)[C@H](O)[C@H](O)CO)C(=O)N[C@@H](CC(C)C)C(=O)N2C[C@H](O)C[C@H]2C(=O)N[C@@H](Cc2c[nH]c3ccccc23)C(=O)N[C@@H](CCNC[C@H](O)[C@@H](O)[C@H](O)[C@H](O)CO)C(=O)N[C@@H](Cc2cn(CC(=O)O)c3ccccc23)C(=O)N1C [Example 2032] ({CH2CO}-Y[NMeA]NP[X58]L[Hyp]W[X59][Trp(1-CH2COOH)][NMeNle][NMeNle]LCG-NH2; thioether N-14) | 5.3 nM
